The values that follow come from patent US20240390337A1, “RELA/RSH INHIBITORS FOR THE TREATMENT OR PREVENTION OF MEDICAL BIOFILMS” (DREXEL UNIVERSITY, priority 2021, published 2024).

The subject of data set [1] is E. coli C biofilm. The data set can be described thus: Synergistic effects of compounds and ampicillin on biofilm biomass (crystal violet). It is filed as cell-based. The settings on record: versus antibiotic-only control; for reduction of biofilm biomass at Amp40: ampicillin 40 μg·mL−1, S3-G1A and S3-G1B 50 μM, IDR1018 5 μM; for reduction in biofilm biomass at Amp50: ampicillin 50 μg·mL−1. The protocol:
Biofilm Dispersal Assays: For biofilm formation on polystyrene surfaces, flat-bottom 96-well microtiter plates (Corning Inc.) were used. […] These were allowed to grow for 24 h. The planktonic cells and medium were then aspirated, and the plates were washed twice with 1×PBS. Fresh LB with hit compounds were added to the biofilm wells. These cultures were then allowed to incubate at 37° C. overnight. Cell density were measured (OD600) using a Multiscan Go plate reader (ThermoFisher), and 30 μL Gram crystal violet (CV) (Remel; 3 g crystal violet, 50 mL isopropanol, 50 mL ethanol, 900 mL purified water) was applied for staining for 1 h. Plates were washed with water and air dried, and CV was solubilized with an ethanol:acetone (4:1) solution. The OD570 was determined from this solution, and the biofilm volume was calculated as the ratio of OD570 to OD600. Synergistic Effects of Compounds and Antibiotics: Biofilms were grown for 24, 48, or 72 h as described elsewhere herein. Planktonic cells were then removed, and biofilms were washed twice with 250 μL sterile PBS solution. Two hundred microliter aliquots of fresh LB medium with multiple concentrations of the tested compounds and ampicillin were dispensed into the wells. After 18 h of incubation at 37° C., the biofilm mass was measured as described elsewhere herein. For the AlamarBlue viability test, 4 μL of AlamarBlue (Invitrogen) was added and plates were incubated in a Biotek HT plate reader at 37° C. for 4 h. Cell viability was measured as fluorescence at 530/590 nm (excitation/emission) versus compound concentration or initial cell density.

Data set [2] addresses T1, RelA enzyme (Escherichia coli, UniProt P0AG20). Kind of data set: Semi-HTS and IC50, in vitro RelA ppGpp production assay ([α-32P]GTP). It counts as biochemical, E. coli. The settings on record: for IC50: concentration gradient, in vitro radio isotope assay. The protocol:
The next step of the semi-HTS was to run the 40 in silico determined compounds in an in vitro RelA assay at a relatively high concentration of 200 μM, to test if there is any effect on RelA ppGpp production using the α-32P-GTP radio isotope in vitro assay. […] From this assay, two compounds were picked to go into later assays (C14 [4.2%], C22 [13.4%]).
The follow-up assay to the semi-HTS is determination of in vitro half-maximal inhibitory concentration (IC50). In vitro IC50 is completed by a concentration gradient run on the in vitro radio isotope assay (FIG. 29B). […] C14 was originally purchased from Enamine®; however, it was later synthesized in-house as more was needed than could be purchased.
RelA enzyme was purified as described in Example 2.

Another data set deals with Pseudomonas aeruginosa. Kind of data set: Toxin production by P. aeruginosa (Example 4, FIG. 42). The settings on record: read-out: EC50 of inhibition of toxin production. It counts as cell-based.
Data set [3] has as its system E. coli C biofilm. Kind of data set: Biofilm persistence assay with ampicillin (crystal violet). It counts as cell-based. As to the method:
Biofilm persistence and viability were assessed with the hit compounds in combination with an antibiotic. It has been determined that sub-MICs (minimum inhibitory concentration) of antibiotic result in increased biofilm formation. Ampicillin was used in all of the assays due to its bactericidal effect. Sub-MIC concentrations of ampicillin were determined by growth measurements (OD600). […] Biofilm Persistence Assays with Ampicillin: Biofilms were grown for 24 or 48 h as described elsewhere herein. Planktonic cells were removed, and the biofilms were washed twice with 250 μL sterile PBS solution. Two hundred microliters of fresh LB medium with various concentrations of ampicillin were dispensed into the wells. After 18 h of incubation at 37° C., the volume of biofilm was measured by CV staining as described elsewhere herein.

Data set [4] relates to E. coli C biofilm. The data set can be described thus: Biofilm inhibition assay (crystal violet). It counts as cell-based. The settings on record: results not shown. The protocol: Studies were conducted in 96-well high-throughput assays. In the biofilm inhibition assay, compounds were added to the wells at the beginning of the experiment. For the biofilm dispersal assay, the biofilm was allowed to grow for 24 and 48 h, the wells were washed with sterile phosphate-buffered saline (PBS), and fresh medium supplemented with the compounds was added to the wells. The amount of biofilm was measured after 24 h.
(§1) Biofilm Inhibition Assays: For biofilm formation on polystyrene surfaces, flat-bottom 96-well microtiter plates (Corning Inc.) were used. […] The biofilm mass was measured by the CV staining assay described elsewhere herein.

For data set [5], the system named is P. aeruginosa PA14. Kind of data set: Biofilm formation in P. aeruginosa PA14. It counts as cell-based. As to the method:
as §1

A further data set relates to P. aeruginosa PA01. Kind of data set: Biofilm formation in P. aeruginosa PA01. It is filed as cell-based. The settings on record: results not shown. As to the method:
as §1

Data set [6] relates to P. aeruginosa PA14.
Protocol: P. aeruginosa PA14 was grown overnight in LB Miller broth at 37° C. with shaking (250 rpm). […] This was then grown for 18 h at 37° C. Cells were pelleted by centrifugation. One milliliter of supernatant was collected, and 1 mL of chloroform was added to the supernatant. Layers were separated and OD690 was taken for chloroform layer (blue). OD690 was normalized to culture cell density OD600.
For data set [7], the system named is E. coli C. Kind of data set: E. coli C aggregation assay. The settings on record: high salt, low temperature, amino acid starvation.
Protocol: E. coli C was grown in LB Miller broth at 30° C. with shaking (250 rpm) with or without compounds. E. coli C ΔrelA mutant was also grown as a control. One milliliter of the culture was transferred to standard polypropylene spectrophotometer cuvettes to measure planktonic cells densities (OD600). Remaining cultures were vortexed ˜1 min and 1 mL was aliquoted into cuvettes to measure the total cell densities (OD600). Aggregation was calculated as a ratio of planktonic to total cell density.
Data set [8] concerns (p)ppGpp production in E. coli C. The data set can be described thus: In vivo (p)ppGpp quantification in E. coli C (32P orthophosphate, serine hydroxamate, TLC). It counts as cell-based. The settings on record: 20 μM compound. As to the method:
In vivo (p)ppGpp Quantification: In vivo (p)ppGpp quantification was carried out. One milliliter of overnight cell culture of E. coli C was placed in 1.5-mL microcentrifuge tubes and pelleted. To this pellet was added 50 μL of a reaction mixture containing 20 μCi orthophosphoric acid and 40 μM serine hydroxamate in 1×MOPS minimal medium. The cell pellet was resuspended by gentle vortexing and placed in an incubator for 1 h. Cell growth arrest and cell lysis were completed by addition of 15 μL formic acid (88%). The lysate was then centrifuged to remove any insoluble components and the supernatant was spotted on a stationary-phase PEI-cellulose TLC plate. Plates were processed and analyzed as described elsewhere herein.

Data set [9] addresses T1, RelA enzyme. The data set can be described thus: In vitro (p)ppGpp quantification (RelA ppGpp production assay, [γ-32P]ATP, TLC). The settings on record: 20 μM compound.
Protocol: The direct (p)ppGpp detection in vivo and in vitro assays relied on different 32P radioactive nucleotides (γ-32P-ATP, α-32P-GTP) for use as substrates, and thin-layer chromatography (TLC) to separate the reaction products (stationary phase: polyethylenimine cellulose).
Both methods required TLC with a stationary phase of a polyethyleneimine (PEI)-cellulose plate and a mobile phase of 1 M potassium phosphate monobasic.
In vitro (p)ppGpp quantification: in vitro (p)ppGpp quantification was carried out. […] Roughly 0.4 μg of RelA protein was added to a 1.5-mL microcentrifuge tube containing a reaction mix composed of 1×PBS, 5 mM MgCl2, 0.5 mM ATP, 0.5 mM GTP, 0.5 mM GDP, and 20 μCi[γ-32P]ATP (3,000 Ci mmol-1; PerkinElmer) and varying concentrations of the compound of interest. These reactions were incubated at 37° C. for 1 h. The reactions were stopped by addition of 5 μL formic acid (88%). The reaction mixtures were then spotted on a stationary-phase polyethyleneimine (PEI)-cellulose TLC plate using potassium phosphate monobasic (1.5 M) as the mobile-phase. The plates were then dried, and the radiation levels were read using a Molecular Dynamics Storage Phosphor Screen. A Molecular Dynamics Storm 840 Phosphor imager Scanner was used to read the phosphor screen and ImageJ was used to process the images.
In data set [10] the test system is E. coli C biofilm. Kind of data set: AlamarBlue viability assay of biofilm cells, compounds plus ampicillin. It is filed as cell-based. As to the method:
Synergistic Effects of Compounds and Antibiotics: Biofilms were grown for 24, 48, or 72 h as described elsewhere herein. Planktonic cells were then removed, and biofilms were washed twice with 250 μL sterile PBS solution. Two hundred microliter aliquots of fresh LB medium with multiple concentrations of the tested compounds and ampicillin were dispensed into the wells. After 18 h of incubation at 37° C., the biofilm mass was measured as described elsewhere herein. For the AlamarBlue viability test, 4 μL of AlamarBlue (Invitrogen) was added and plates were incubated in a Biotek HT plate reader at 37° C. for 4 h. Cell viability was measured as fluorescence at 530/590 nm (excitation/emission) versus compound concentration or initial cell density.
For orientation: Resazurin is reduced to fluorescent resorufin, in cell work by metabolically active cells.

Data set [11] relates to E. coli C. Kind of data set: Cell growth curves (planktonic growth, OD600). Particulars: 30 μg·mL−1.
Protocol: Cell Growth Curves: The effect of the hit compounds on bacterial growth was tested by adding compounds at multiple concentrations to the bacterial culture (100× diluted overnight culture; approximately 10^7 cells) in fresh LB medium. Two hundred microliters aliquots were pipetted into 96-well plates and placed into a Biotek HT or Tecan Infinite M200 Pro plate reader for 18 h at 37° C. Plates were shaken during incubation and the optical density (OD630 or OD600) was measured every 15 min.
The effect of the hit compounds on bacterial growth was tested by adding compounds at 200 μM (with DMSO control) to the bacterial culture (100× diluted overnight culture; approximately 10^7 cells) in fresh LB medium. Two hundred microliter aliquots were pipetted into 96-well plates, which were placed into a Biotek HT or Tecan Infinite M200 Pro plate reader for 18 h at 37° C. Plates were shaken during incubation and the optical density (OD630 or OD600) was measured every 15 min.

T1 sequence (P0AG20 whole entry): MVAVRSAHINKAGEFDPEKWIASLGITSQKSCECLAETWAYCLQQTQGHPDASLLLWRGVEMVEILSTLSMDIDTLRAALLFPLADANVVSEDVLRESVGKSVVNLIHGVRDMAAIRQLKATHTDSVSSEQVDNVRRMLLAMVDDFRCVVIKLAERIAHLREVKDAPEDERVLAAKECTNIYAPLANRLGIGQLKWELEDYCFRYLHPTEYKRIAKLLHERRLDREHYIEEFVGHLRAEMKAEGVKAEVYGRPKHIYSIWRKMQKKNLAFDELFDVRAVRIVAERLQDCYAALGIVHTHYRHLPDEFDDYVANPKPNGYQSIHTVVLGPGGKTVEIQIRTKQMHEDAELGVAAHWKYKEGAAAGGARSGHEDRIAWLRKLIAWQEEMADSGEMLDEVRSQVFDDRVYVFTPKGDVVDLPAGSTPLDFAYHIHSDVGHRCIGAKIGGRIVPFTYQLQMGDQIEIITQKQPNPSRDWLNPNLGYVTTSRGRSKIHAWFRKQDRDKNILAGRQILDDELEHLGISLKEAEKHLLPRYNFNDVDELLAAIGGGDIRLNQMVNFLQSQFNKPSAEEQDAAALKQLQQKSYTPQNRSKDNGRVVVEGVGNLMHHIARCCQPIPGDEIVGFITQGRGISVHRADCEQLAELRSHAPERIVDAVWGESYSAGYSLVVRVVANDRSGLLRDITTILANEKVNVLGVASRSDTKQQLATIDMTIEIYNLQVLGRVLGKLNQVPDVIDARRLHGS

IDR1018 [reference compound]: in the data set with E. coli C biofilm [1], the “reduction of biofilm biomass at Amp40” value is listed as 75.4% and the “reduction in biofilm biomass at Amp50” value came out at 65.2%.
As to `O=C(O)Cn1cc(C[C@H]2NC(=O)NC2=O)nn1` [Compound C14], the IC50 on RelA enzyme [2] is 54 µM. Also, in the data set with Pseudomonas aeruginosa, the EC50 stood at 39.5 nM.
For `CC1(C)S[C@@H]2[C@H](NC(=O)[C@H](N)c3ccccc3)C(=O)N2[C@H]1C(=O)O` [Ampicillin], in the data set on E. coli C biofilm [3], the “ampicillin concentration with the highest biofilm biomass” value is 80 µg/mL and the “effect on amount of biofilm” value is “significantly increased the amount of biofilm”.
With `O=C(O)CCNC(=O)c1cccc(-n2cc(Br)cn2)c1` [Compound C22, 3-(3-(4-bromo-1H-pyrazol-1-yl)benzamido)propanoic acid], the “effect on biofilm formation” value in the data set on E. coli C biofilm [4] and with P. aeruginosa PA01 was “little effect” in each case. Moreover, the “ppGpp production relative to the untreated control (set at 100%)” value on RelA enzyme [2] (200 μM compound) turned out to be 13.4%. Half-maximal inhibition at RelA enzyme [2] (IC50) was put at 93 µM. In addition, in the data set with P. aeruginosa PA14 [5], the “biofilm formation compared to the DMSO control” value is listed as “reduced biofilm formation but not significantly”. Also, the “effect on pyocyanin production” value in the data set with P. aeruginosa PA14 [6] was “produced an effect, it never reached the level of C14”. Moreover, the “E. coli C aggregation” value in the data set on E. coli C [7] is given as “slightly absent”.
`CC(C)C(=O)Nc1nc2c(ncn2[C@H]2C[C@H](OC(=O)NCC(=O)NCC(=O)O)[C@@H](COC(=O)NCC(=O)NCC(=O)O)O2)c(=O)[nH]1` [Relacin, reference compound]: in data set [8], the “reduction in ppGpp production, in vivo assay” value is recorded as “no effect”. Moreover, on RelA enzyme [9], the “reduction of ppGpp production compared to untreated sample, in vitro assay” value came to 45.4%.
In the case of `O=C(N[C@H](C(=O)O)c1ccc(Cl)cc1)c1cc(-c2ccc(O)cc2)n[nH]1` [Compound S3-G1A, (S)-2-(4-chrlorphenyl)-2-(3-(4-hydroxyphenyl)-1H-pyrazole-5carboxamido) acetic acid], the “reduction in ppGpp production, in vivo assay” value in [8] is 31.4%. For the same compound, in the data set with E. coli C biofilm [1], the “reduction of biofilm biomass at Amp40” value is 97.9% and the “reduction in biofilm biomass at Amp50” value came out at 67.9%. Further, the “reduction of cell viability (AlamarBlue) at Amp30” value with E. coli C biofilm [10] (ampicillin 30 μg·mL−1, compound 50 μM) is 55.4%. Besides, the “decrease of cell viability (AlamarBlue) at higher concentrations of antibiotic” value in the data set on E. coli C biofilm [10] (higher concentrations of ampicillin (not specified)) was 29.2%. In addition, the “effect on pyocyanin production” value in the data set on P. aeruginosa PA14 [6] was “small effect”. Also, the “effect on planktonic growth rate / bacterial growth” value in the data set with E. coli C [11] is recorded as “no effect”. The “reduction of ppGpp production compared to untreated sample, in vitro assay” value at RelA enzyme [9] was 71.7%.

Usually IC50 stands for the point on the concentration scale where inhibition reaches its midpoint. Read a high IC50 as a need for much substance. By EC50 is commonly meant the midpoint of the concentration-response curve.
